In patent US12053504B2, “Anti-angiogenic treatment using VLO4 with a blocking peptide” ([…] OF PHARMACY, LLC, priority 2011, dated 2024):
“Also recorded” adds a separate entry of the source.

Legend:
colorectal cancer = details: in combination with the standard Saltz regime of irinotecan, 5-fluorouracil, and leucovorin; cited from earlier work
HDMEC = assay: Microcarrier (EC-bead) in vitro sprout angiogenesis assay of HDMEC in fibrin gel; assay type: cell-based, human; details: for sprout angiogenesis in a HDMEC culture in VEGF and bFGF (Example 4): agent(s) added to HDMEC culture in VEGF and bFGF, doses not printed in this block; for sprout angiogenesis of HDMEC in fibrin induced by VEGF and bFGF: 3 days; for sprout angiogenesis of HDMEC in fibrin, single agent (Example 4 summary): in vitro, doses not given
Description: Human dermal microvascular endothelial cells (HDMEC) were isolated from human neonatal foreskins. Briefly, after initial harvest from minced trypsinized human foreskins, microvascular endothelial cells were further purified on a PERCOLL density gradient. HDMEC were cultured on collagen type 1 coated tissue culture flasks in EGM (endothelial cell growth medium) consisting of EBM supplemented with 10 ng/ml epidermal growth factor, 0.4% bovine brain extract, 17.5 microg/ml dibutyryl cyclic AMP, and 1 microg/ml hydrocortisone in the presence of 30% normal human serum. Endothelial cell cultures were characterized and determined to be >99% pure on the basis of formation of typical cobblestone monolayers in culture, positive immunostaining for factor VIII-related antigen, and selective uptake of acetylated low density lipoprotein. All experiments were done with HDMEC below passage 10. Bovine aortic endothelial cells (BAEC) were obtained from BioWhittaker, Inc. (Walkersville, MD) and cultured according to manufacturer's instruction. BAEC between passage 4 and 8 were used for experiments.
Gelatin-coated CYTODEX-3 microcarrier beads were prepared as described by the manufacturer. Approximately 80,000 sterile microcarrier beads were washed, resuspended in EGM, and added to approximately 4.5 million endothelial cells (HDMEC or BAEC). The beads and cells were mixed by gentle swirling, incubated at 37° C. for 6 hr, and then rotated for 24-36 hr on an orbital mixer in a 37° C. oven to generate endothelial cell-loaded microcarrier beads (EC-beads).
FIGS. 1A-1C illustrate a study of human microvascular endothelial cell angiogenesis, according to some embodiments. A microcarrier, in vitro angiogenesis assay, previously designed to investigate bovine pulmonary artery endothelial cell angiogenic behavior in bovine fibrin gels, was modified for the study of human microvascular endothelial cell angiogenesis. The HDMEC were isolated from human neonatal foreskins and used, as described above, and images were captured at various magnifications, where the effect of angiogenic factors on sprout angiogenesis was quantified visually by counting the number and percent of EC-beads with capillary sprouts. […]
For experiments using RGD peptides, EC-beads were firstly incubated with vary concentrations of peptides for one hour and then were added to the ECM solutions. About 500 EC-beads were then added to the ECM protein solutions, followed by the addition of 0.5 U/ml human thrombin. A 0.3 ml aliquot of each suspension was immediately added to appropriate wells of a 24-well tissue culture plate. After gelation, 1 ml of fresh assay medium (EBM supplemented with 20% normal human serum for HDMEC or EBM supplemented with 10% fetal bovine serum for BAEC) was added to each well.
FIGS. 1B and 1C show how the angiogenic response was monitored visually and recorded by video image capture. Specifically, capillary sprout formation was observed and recorded with a NIKON Diaphot-TMD inverted microscope (Nikon Inc., Melville, NY), equipped with an incubator housing with a NIKON NP-2 thermostat and Sheldon #2004 carbon dioxide flow mixer. The microscope was directly interfaced to a video system consisting of a Dage-MTI CCD-72S video camera and Sony 12″ PVM-122 video monitor linked to a Macintosh G3 computer. The images were captured at various magnifications using Adobe Photoshop. The effect of angiogenic factors on sprout angiogenesis was quantified visually by determining the number and percent of EC-beads with capillary sprouts. 100-200 beads (five random low power fields) in each of triplicate wells were counted for each experimental condition. All experiments were repeated at least three times.

HT1080 tumor cell = HT1080 tumor cell invasion from contracted collagen into fibrin 3D matrices; assay type: cell-based; details: for HT1080 tumor cell invasion from contracted collagen into fibrin 3D matrices: 3 μg/ml, FIGS. 11 and 12
[1] = target: collagen receptors α2β1 integrins (Homo sapiens, UniProt P05556+P17301); details: cited from earlier work
[2] = tested on: H1650 (Human metastatic lung cancer cell line); assay: H1650 tumor cell proliferation; assay type: cell-based; details: FIG. 13
[3] = tested on: A549 (human alveolar adenocarcinoma cell line); assay: A549 tumor cell proliferation; assay type: cell-based; details: FIG. 13

In the case of “AVASTATIN: human monoclonal antibody to VEGF”, the “increase in survival time” value (colorectal cancer) is given as “more than 30%”.

With “Echistatin (QCESGPCCRNCKFLKEGTICKRARGDDMDDYCNGKTCDCPRNPHKGPAT)” the “sprout angiogenesis in a HDMEC culture in VEGF and bFGF (Example 4)” value (HDMEC) was “inhibition”, the “sprout angiogenesis of HDMEC in fibrin induced by VEGF and bFGF” value (shortened to “sprout angiogenesis … by VEGF and bFGF”) (HDMEC; echistatin 0.1 μg/ml alone, VEGF 30 ng/ml, bFGF 25 ng/ml, FIG. 10B) was “didn't significantly inhibit” and the “sprout angiogenesis of HDMEC in fibrin, single agent (Example 4 summary)” value (HDMEC) was “dose dependently inhibits”. The “HT1080 tumor cell invasion from contracted collagen into fibrin 3D matrices” value (HT1080 tumor cell) was “significantly inhibit”.

In the case of “GPenGRGDSPCA [RGD[VN], reference compound]”, the “sprout angiogenesis of HDMEC in fibrin” value (HDMEC; RGD[VN] 12.5 mM-100 mM, pre-incubated 1 hr at RT, VEGF 100 ng/ml, compared to GRGESP[RGE] control peptide, FIG. 4) is reported as “significantly inhibited”.

For VP12, the “sprout angiogenesis … by VEGF and bFGF” value (HDMEC; VP12 10 μg/ml alone, VEGF 30 ng/ml, bFGF 25 ng/ml) was “didn't significantly inhibit”, the “enhancement of the inhibition of sprout angiogenesis by echistatin” value (HDMEC; VP12 (ECL12) administered in combination with echistatin) was “significantly and synergistically enhanced” and the “sprout angiogenesis in a HDMEC culture in VEGF and bFGF (Example 4)” value (HDMEC) was “inhibition”. For the same molecule, the “sprout angiogenesis of HDMEC in fibrin, single agent (Example 4 summary)” value (HDMEC) was “no inhibitory effect”, the “inhibitory activity against collagen receptors α2β1 integrins” value [1] was “potent inhibitory activity” and the “HT1080 tumor cell invasion from contracted collagen into fibrin 3D matrices” value (HT1080 tumor cell) was “significantly inhibit”.

B1: VLO4 (protein)
chain: MNSGNPCCDPVTCKPRRGEHCVSGPCCRNCKFLNAGTICKRARGDDMNDYCTGISPDCPRNPWKG
In the case of B1, the “sprout angiogenesis … by VEGF and bFGF” value (HDMEC; VLO4 0.01 μg/ml alone, VEGF 30 ng/ml, bFGF 25 ng/ml) is reported as “didn't significantly inhibit”, the “sprout angiogenesis of HDMEC induced by VEGF in fibrin” value (HDMEC; VLO4 0.3 μg/ml-3 μg/ml, 30 minutes at RT, VEGF 100 ng/ml, FIG. 5) is reported as “dose-dependently inhibits” and the “disruption of newly formed angiogenic sprouts of HDMEC in fibrin” value (HDMEC; VLO4 3 μg/ml added on day 5, read within 24 hours, VEGF 30 ng/ml, bFGF 25 ng/ml, CH2 10 μg/ml, FIG. 7B) is reported as “totally disrupted; also recorded: disrupts”. For the same molecule, the “sprout angiogenesis of HDMEC induced by VEGF in fibrin (micrographs)” value (HDMEC; VLO4 0.01, 0.1, 0.3 and 1 μg/ml, 30 minutes at room temperature, VEGF 100 ng/ml, FIGS. 6A-6D) was “dose-dependently inhibits”, the “HT1080 tumor cell invasion from contracted collagen into fibrin 3D matrices” value (HT1080 tumor cell) was “significantly inhibit” and the “HT1080 tumor cell invasion from contracted 3D collagen matrices into 3D fibrin matrices, dose dependence” value (HT1080 tumor cell; FIG. 11) was “dose dependently inhibits”. For the same molecule, the “H1650 tumor cell proliferation” value [2] was “significantly inhibited” and the “A549 tumor cell proliferation” value [3] was “significantly inhibited”.
